Experimental data reported in patent US20060223812A1, “Treating neurodegenerative conditions” (MAX-PLANCK-GESELLSCHAFT ZUR FORDERUNGDER WISSENSCHAFTEN, …, priority 2004, published 2006).

Columns and labels:
[1] = system: K18/ΔK280/Y310W; assay: Tryptophan fluorescence inhibition assay, K18/ΔK280/Y310W; assay type: biochemical, human; conditions: 60 μM compound
From the text: In order to exclude a possible distortion of the data by the dye the results of the ThS assays can be confirmed by a tryptophan fluorescence assay (Li et al., 2002). It allows the detection of the molecular environment of a tryptophan introduced instead of tyrosine 310 whose emission maximum is sensitive to the burial in a more hydrophobic surrounding upon PHF formation. Therefore the mutants K19/Y310W (FIG. 1I) and K18/Y310W (FIG. 1H) that contain a single tryptophan within the core of the PHF structure were created. In the soluble protein the emission maximum lies at ˜354 nm, whereas it shifts to 340 nm upon PHF formation (FIG. 3A, compare first and second entry). […]
The fluorescence experiments were performed on a Spex Fluoromax spectrophotometer (Polytec, Waldbronn, Germany) using 3 mm×3 mm micro cuvettes from Hellma (Mühlheim, Germany) with 20 μl sample volumes. […] The slit widths were 5 nm, the integration time was 0.25 second, and the photomultiplier voltage was 950 V. For fluorescence inhibition assay, 60 μM compounds were incubated with K19/Y310W construct (10 μM) or K18/ΔK280/Y310W and heparin (2.5 μM) in PBS, pH 7.4 three days at 37° C. […]
(A-C) fluorescence emission maximum of the single tryptophan W310 inserted by site-directed mutagenesis into tau constructs K19 (FIG. 3A), K18 (FIG. 3B) and K18/ΔK280 (FIG. 3C). […]

[2] = biological target: T1, Aβ1-40 fibrils (Homo sapiens, UniProt P05067); assay: Disassembly of pre-formed Aβ fibrils (thioflavine T); assay type: biochemical; conditions: 60 μM compound, 10 μM Aβ1-40
T1 construct: Commercial human Aβ1-40 was obtained from Calbiochem; purchased Calbiochem
T1 sequence (P05067 672-711): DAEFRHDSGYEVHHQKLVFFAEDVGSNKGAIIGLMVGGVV
Experimental: Besides the activity of the compounds towards tau fibres, their specificity is an important issue, i.e. the ability to discriminate between different types of aggregates. Therefore, an analysis of the influence of the compounds (60 μM) on amyloid fibrils made from the Aβ1-40 peptide, both in terms of inhibition of de novo filament formation and depolymerisation was performed (FIGS. 8A-B). These fibres are also abundant in Alzheimer brain and contain a core of cross-β-structure, but are located outside the cells, in contrast to the intracellular PHFs.
Commercial human Aβ1-40 was obtained from Calbiochem (Schwalbach, Germany) and stored at −20° C. The AD peptide was routinely dissolved in 100% DMSO to obtain a 2 mM stock solution, which was subsequently stored frozen at −20° C. […] For analysis 5 μl of this solution were added to 45 μl 10 mM phosphate buffer containing 6 μM thioflavine T, pH 6.0, after 30 minutes incubation at room temperature the fluorescence was measured at 504 nm emission by an excitation of 409 nm. To correlate fibril morphology with the fluorescence signal, aliquots of the Aβ1-40 solutions were simultaneously prepared for electron microscopy. […]

[3] = biological target: T2, PHFs from htau23 (Homo sapiens, UniProt P10636); assay: Filter trapping assay, depolymerisation of PHFs; assay type: biochemical; conditions: PVDF filter, antibody K9JA
T2 construct: made in house; host or cells: E. coli
T2 sequence (P10636 1-352 isoform P10636-2): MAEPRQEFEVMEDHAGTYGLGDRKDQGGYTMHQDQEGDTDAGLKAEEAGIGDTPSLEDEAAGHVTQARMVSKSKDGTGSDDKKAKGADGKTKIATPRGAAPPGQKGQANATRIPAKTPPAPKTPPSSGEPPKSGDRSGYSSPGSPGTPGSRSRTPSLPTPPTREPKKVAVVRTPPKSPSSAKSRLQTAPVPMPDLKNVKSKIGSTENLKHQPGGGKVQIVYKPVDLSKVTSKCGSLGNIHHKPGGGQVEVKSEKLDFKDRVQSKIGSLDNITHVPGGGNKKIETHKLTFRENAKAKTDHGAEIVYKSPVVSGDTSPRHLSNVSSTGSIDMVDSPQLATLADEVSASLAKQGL
Experimental: The effect of compounds on the depolymerisation of PHFs was analysed using a filter trapping assay. This assay monitors aggregated tau which is trapped on a membrane filter, whereas the soluble protein is washed through. Therefore the technique preferably detects larger filaments, similar to the ThS assay.
Aggregates of tau were trapped by filtration through a PVDF-membrane (pore diameter 0.45 μm, Schleicher and Schuell, Düren, Germany) adapted to 96-well dot blot apparatus. The PVDF-membrane was wetted with methanol and rinsed with PBS-buffer before incorporated into the dot blot apparatus. The samples were pipetted into 100 μl of PBS and filtered. The membrane was washed three times with PBS before taken out of the apparatus and blocked with 5% milk powder in PBS for 30 minutes in a rotational shaker at room temperature. The polyclonal antibody K9JA was used as primary antibody and incubated at a dilution of 1:20.000 at room temperature for one hour. […] After three times washing with TBS-Tween the signal was detected using the ECL system (Amersham Pharmacia) and pictures were taken with the digital gel documentation system Fuji film BAS3000 (Raytest, Straubenhardt, Germany). Quantification of the signals was performed with the AIDA-software package (Raytest, Straubenhardt, Germany).
(D) Depolymerisation of PHFs from htau23 measured by filter assay. […]

Structure (SMILES)	ranking as inhibitor, K18/ΔK280, Trp fluorescence [1]	depolymerisation activity, Aβ fibrils [2]	DC50 [3]
O=C(c1ccccc1)c1ccc(O)c(O)c1O [PHF005, 1-Phenyl-1-(2,3,4-trihydroxy-phenyl)-methanone]	best	~50%	–
Cc1cc(O)c2c(c1)C(=O)c1cc(O)cc(O)c1C2=O [Emodin, 1,3,8-Trihydroxy-6-methyl-anthraquinone]	–	–	~500 nM
O=C1c2ccc(O)c(O)c2C(=O)c2c(O)ccc(O)c21 [PHF016, 1,2,5,8-Tetrahydroxy-anthraquinone]	worst	–	–
